# Reference: patent US6699685B1, “Method, test media and chromogenic compounds for identifying and differentiating general coliforms and escherichia coli bacteria” (RCR Scientific, Inc., priority 1990, dated 2004)
# How the values were obtained:
# coliforms = experiment: Enzyme inducer added to medium; format: cell-based; conditions: approximately 25 mg/liter of medium; some species of coliforms
# Description: It is possible that the enzyme production of the general coliforms may be enhanced by the addition to the medium formulations of very small amounts of substances known as enzyme inducers. The specific inducer for β-galactosidase is available and is known chemically as isopropyl-β-D-thiogalactopyranoside.
# β-glucuronidase [1] = molecular target: T1, β-glucuronidase (Escherichia coli, UniProt P05804); experiment: Precipitate formed by substrate upon reaction with enzyme; format: biochemical
# T1 construct: E. coli produces β-galactosidase, but, unlike general (other) coliforms, also produces β-glucuronidase; endogenous in cells; host or cells: Escherichia coli colonies growing in the test medium
# T1 sequence (P05804 whole entry): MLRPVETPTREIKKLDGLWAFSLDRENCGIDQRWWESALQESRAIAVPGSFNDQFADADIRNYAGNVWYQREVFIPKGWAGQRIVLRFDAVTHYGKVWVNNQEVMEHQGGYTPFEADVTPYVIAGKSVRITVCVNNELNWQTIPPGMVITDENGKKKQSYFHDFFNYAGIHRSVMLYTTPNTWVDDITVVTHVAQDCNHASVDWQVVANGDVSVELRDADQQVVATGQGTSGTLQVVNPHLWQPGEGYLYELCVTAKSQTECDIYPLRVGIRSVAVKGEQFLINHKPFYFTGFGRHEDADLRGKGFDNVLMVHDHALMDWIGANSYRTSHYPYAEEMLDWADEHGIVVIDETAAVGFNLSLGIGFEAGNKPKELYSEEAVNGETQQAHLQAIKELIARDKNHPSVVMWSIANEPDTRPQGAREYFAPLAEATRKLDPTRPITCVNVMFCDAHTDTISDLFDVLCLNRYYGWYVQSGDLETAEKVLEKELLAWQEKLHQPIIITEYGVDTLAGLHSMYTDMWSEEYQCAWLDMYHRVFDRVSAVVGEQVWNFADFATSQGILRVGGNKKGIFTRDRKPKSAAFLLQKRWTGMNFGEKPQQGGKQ
# Description: The β-glucuronidase substrates and compounds described herein as “glucuronides” include carboxylate salts formed by reacting a suitable base with the glucuronic carboxyl group. Suitable bases include alkali metal or alkaline earth metal hydroxides or carbonates, for example, sodium hydroxide, potassium hydroxide, calcium hydroxide, magnesium hydroxide, and corresponding carbonates; and nitrogen bases such as ammonia and alkylamines such as trimethylamine, triethylamine and cyclohexylamine.
# Enterobacter cloacae = experiment: Colony colour test of chromogenic substrate in medium (Example 1); format: cell-based
# Description: (§1) 6-Chloroindolyl-β-D-galactoside and 5-bromo-4-chloro-3-indolyl-β-D-glucuronide (X-gluc) were each tested separately with 17 different bacterial species including β-galactosidase producing microorganisms, β-glucuronidase producing microorganisms, and microorganisms which produce neither enzyme.
# Bacillus cereus = experiment: as above; format: cell-based
# Description: as §1
# Salmonella typhimurium = experiment: as above; format: cell-based
# Description: as §1
# Proteus vulgaris = experiment: as above; format: cell-based
# Description: as §1
# Enterobacter aerogenes = experiment: as above; format: cell-based
# Description: as §1
# Citrobacter freundii = experiment: as above; format: cell-based
# Description: as §1
# [2] = system: Staphylococcus epidermidis; experiment: as above; format: cell-based
# Description: as §1
# Bacillus subtilus = experiment: as above; format: cell-based
# Description: as §1
# Escherichia coli = experiment: as above; format: cell-based; conditions: for colour of colonies grown in medium containing the substrate: E. coli, substrates tested separately
# Description: as §1
# Sarcina lutea = experiment: as above; format: cell-based
# Description: as §1
# [3] = as above; format: cell-based; conditions: Staphylococcus faecalis
# Description: as §1
# Klebsiella pneumoniae = experiment: as above; format: cell-based
# Description: as §1
# [4] = system: Acinetobacter calcoaceticus; experiment: as above; format: cell-based
# Description: as §1
# Serratia marcescens = experiment: as above; format: cell-based
# Description: as §1
# Pseudomonas aeruginosa = experiment: as above; format: cell-based
# Description: as §1
# Bacillus megaterium = experiment: as above; format: cell-based
# Description: as §1
# Staphylococcus aureus = experiment: as above; format: cell-based
# Description: as §1
# β-glucuronidase [5] = molecular target: T1, β-glucuronidase; conditions: Watkins et al. 1988; cited from earlier work
# β-galactosidase [6] = conditions: known test compound; cited from earlier work
# β-galactosidase [7] = system: β-galactosidase
# Description: The chromogenic β-galactosidase substrate is a β-galactoside comprising galactose joined by β-linkage to a substituent that forms an insoluble precipitate of a first color when liberated by the action of β-galactosidase on the substrate.
compound,measurement,setting,value
CC(C)S[C@@H]1O[C@H](CO)[C@H](O)[C@H](O)[C@H]1O [isopropyl-β-D-thiogalactopyranoside],effect on speed of enzyme (β-galactosidase) production,coliforms,positive and noticeable effect on the speed of enzyme production
O=C(O)[C@H]1O[C@@H](Oc2c[nH]c3cc(Cl)ccc23)[C@H](O)[C@@H](O)[C@@H]1O [6-chloroindolyl-β-D-glucuronide],precipitate formed when reacted upon by β-glucuronidase,β-glucuronidase [1],insoluble magenta precipitate
"O=C(O)[C@H]1O[C@@H](Oc2c[nH]c3ccc(Br)c(Cl)c23)[C@H](O)[C@@H](O)[C@@H]1O [X-gluc, 5-bromo-4-chloro-3-indolyl-β-D-glucuronide, reference compound]",coloured colonies in X-gluc medium,Enterobacter cloacae,−
same,coloured colonies in X-gluc medium,Bacillus cereus,−
same,coloured colonies in X-gluc medium,Salmonella typhimurium,−
same,coloured colonies in X-gluc medium,Proteus vulgaris,−
same,coloured colonies in X-gluc medium,Enterobacter aerogenes,−
same,coloured colonies in X-gluc medium,Citrobacter freundii,−
same,coloured colonies in X-gluc medium,[2],−
same,coloured colonies in X-gluc medium,Bacillus subtilus,−
same,colour of colonies grown in medium containing the substrate,Escherichia coli,indigo blue colonies
same,coloured colonies in X-gluc medium,Escherichia coli; Escherichia coli,+
same,coloured colonies in X-gluc medium,Sarcina lutea,−
same,coloured colonies in X-gluc medium,[3],−
same,coloured colonies in X-gluc medium,Klebsiella pneumoniae,−
same,coloured colonies in X-gluc medium,[4],−
same,coloured colonies in X-gluc medium,Serratia marcescens,−
same,coloured colonies in X-gluc medium,Pseudomonas aeruginosa,−
same,coloured colonies in X-gluc medium,Bacillus megaterium,−
same,coloured colonies in X-gluc medium,Staphylococcus aureus,−
same,precipitate formed when acted on by β-glucuronidase,β-glucuronidase [5],insoluble indigo blue precipitate
"OC[C@H]1O[C@@H](Oc2c[nH]c3ccc(Br)c(Cl)c23)[C@H](O)[C@@H](O)[C@H]1O [X-gal, 5-bromo-4-chloro-3-indolyl-β-D-galactopyranoside]",precipitate formed when acted on by β-galactosidase,β-galactosidase [6],insoluble indigo blue precipitate
OC[C@H]1O[C@@H](Oc2c[nH]c3cc(Cl)ccc23)[C@H](O)[C@@H](O)[C@H]1O [6-chloroindolyl-β-D-galactoside],colour of colonies grown in medium containing the substrate,Enterobacter cloacae,magenta colonies
same,coloured colonies in medium with 6-chloroindolyl-β-D-galactoside,Enterobacter cloacae,+
same,coloured colonies in medium with 6-chloroindolyl-β-D-galactoside,Bacillus cereus,−
same,coloured colonies in medium with 6-chloroindolyl-β-D-galactoside,Salmonella typhimurium,−
same,coloured colonies in medium with 6-chloroindolyl-β-D-galactoside,Proteus vulgaris,−
same,colour of colonies grown in medium containing the substrate,Enterobacter aerogenes,magenta colonies
same,coloured colonies in medium with 6-chloroindolyl-β-D-galactoside,Enterobacter aerogenes,+
same,colour of colonies grown in medium containing the substrate,Citrobacter freundii,magenta colonies
same,coloured colonies in medium with 6-chloroindolyl-β-D-galactoside,Citrobacter freundii,+
same,coloured colonies in medium with 6-chloroindolyl-β-D-galactoside,[2],−
same,coloured colonies in medium with 6-chloroindolyl-β-D-galactoside,Bacillus subtilus,−
same,colour of colonies grown in medium containing the substrate,Escherichia coli,magenta colonies
same,coloured colonies in medium with 6-chloroindolyl-β-D-galactoside,Escherichia coli; Escherichia coli,+
same,coloured colonies in medium with 6-chloroindolyl-β-D-galactoside,Sarcina lutea,−
same,coloured colonies in medium with 6-chloroindolyl-β-D-galactoside,[3],−
same,colour of colonies grown in medium containing the substrate,Klebsiella pneumoniae,magenta colonies
same,coloured colonies in medium with 6-chloroindolyl-β-D-galactoside,Klebsiella pneumoniae,+
same,coloured colonies in medium with 6-chloroindolyl-β-D-galactoside,[4],−
same,coloured colonies in medium with 6-chloroindolyl-β-D-galactoside,Serratia marcescens,−
same,coloured colonies in medium with 6-chloroindolyl-β-D-galactoside,Pseudomonas aeruginosa,−
same,coloured colonies in medium with 6-chloroindolyl-β-D-galactoside,Bacillus megaterium,−
same,coloured colonies in medium with 6-chloroindolyl-β-D-galactoside,Staphylococcus aureus,−
same,precipitate formed when reacted upon by β-galactosidase,β-galactosidase [7],insoluble magenta precipitate
